Experimental findings from patent US20230106032A1, “IMIDAZOTRIAZINES ACTING ON CANCER VIA INHIBITION OF CDK12” (Bayer Aktiengesellschaft, priority 2020, published 2023) are described below.

One experiment concerns the target T1, CDK12/CycK (Homo sapiens, UniProt Q9NYV4).
T1 construct: His-CDK12 (aa Q696-S1082); made in house; host or cells: Hi-5 insect cells (baculovirus co-infection with CAK1)
The experiment is described as follows: CDK12/CycK high ATP kinase assay (TR-FRET, 2 mM ATP). It counts as biochemical. As to conditions: read-out: CDK12/CyclinK, 2 mM ATP (high ATP), IC50-[mol/l] (median). The source says:
In the context of the present invention, the term “IC50 CDK12 hATP” refers to the IC50 values obtained according to the assay described in this section (2.2) herein below, i.e. the IC50 values for the inhibition of CDK12 at high ATP.
CDK12/CycK-inhibitory activity of compounds of the present invention at 2 millimol/L adenosine-tri-phosphate (ATP) was quantified employing the TR-FRET (TR-FRET=Time Resolved Fluorescence Energy Transfer) based CDK12/CycK activity inhibition assay as described in the following paragraphs.
A complex of human recombinant CDK12 and human recombinant CycK (both N-terminally His-tagged, expression and purification as described above) was used as enzyme. As substrate for the kinase reaction biotinylated peptide biotin-Ahx-KFELLPTPPLSPSRRSGL (C-terminus in amid form) was used which can be purchased e.g. form the company Biosyntan (Berlin-Buch, Germany).
For the assay 50 nanoL of a 100 fold concentrated solution of the test compound in DMSO was pipetted into either a black low volume 384 well microtiter plate or a black 1536 well microtiter plate (both Greiner Bio-One, Frickenhausen, Germany), 2 microL of a solution of CDK12/CycK in aqueous assay buffer [25 millimol/L HEPES pH 7.5, 20 millimol/L MgCl2, 5 millimol/L ß-glycerophosphate, 2 millimol/L EGTA, 1.0 millimol/L dithiothreitol, 0.01% (v/v) Nonidet-P40 (Sigma), 0.01% (w/v) bovine serum albumin] were added and the mixture was incubated for 15 min at 22° C. to allow pre-binding of the test compounds to the enzyme before the start of the kinase reaction. Then the kinase reaction was started by the addition of 3 microL of a solution ATP (3.33 millimol/L=> final conc. in the 5 microL assay volume is 2 millimol/L) and substrate (1.67 micromol/L=> final conc. in the 5 microL assay volume is 1 micromol/L) in assay buffer and the resulting mixture was incubated for a reaction time of 60 min at 22° C. The concentration of CDK12/CycK was adjusted depending of the activity of the enzyme lot and was chosen appropriate to have the assay in the linear range, typical concentrations were about 0.75 nanomol/L. The reaction was stopped by the addition of 3 microL of a solution of TR-FRET detection reagents (125 nanomol/L streptavidine-XL665 [Cisbio Bioassays, Codolet, France] and 0.67 nanomol/L anti-Phospho-c-Myc (Ser 62) (E1J4K)-antibody from Cell Signalling [#13748] and 2 nanomol/L LANCE EU-W1024 labeled anti-rabbit IgG antibody [Perkin-Elmer, product no. 0083]) in an aqueous EDTA-solution (133 millimol/L EDTA, 0.27% (w/v) bovine serum albumin in 66.7 millimol/L HEPES pH 7.5).
(§1) The resulting mixture was incubated 1 h at 22° C. to allow the formation of complex between the phosphorylated biotinylated peptide and the detection reagents. Subsequently the amount of phosphorylated substrate was evaluated by measurement of the resonance energy transfer from the Eu-chelate to the streptavidine-XL. Therefore, the fluorescence emissions at 620 nm and 665 nm after excitation at 350 nm was measured in a TR-FRET reader, e.g. a Pherastar FS (BMG Labtechnologies, Offenburg, Germany) or a Viewlux (Perkin-Elmer). The ratio of the emissions at 665 nm and at […] was taken as the measure for the amount of phosphorylated substrate. The data were normalised (enzyme reaction without inhibitor=0% inhibition, all other assay components but no enzyme=100% inhibition).

Another experiment deals with T2, CDK2/CycE (Homo sapiens, UniProt P24941).
T2 construct: purchased ProQinase GmbH (Freiburg, Germany); host or cells: insect cells (Sf9)
The experiment is described as follows: CDK2/CycE kinase assay (TR-FRET, 2 mM ATP). It is filed as biochemical. Conditions: read-out: CDK2/CyclinE, 2 mM ATP (high ATP) IC50-[mol/l] (median).
From the text: CDK2/CycE-inhibitory activity of compounds of the present invention was quantified employing the CDK2/CycE TR-FRET assay as described in the following paragraphs.
Recombinant fusion proteins of GST and human CDK2 and of GST and human CycE, expressed in insect cells (Sf9) and purified by Glutathion-Sepharose affinity chromatography, were purchase from ProQinase GmbH (Freiburg, Germany). As substrate for the kinase reaction biotinylated peptide biotin-Ttds-YISPLKSPYKISEG (C-terminus in amid form) was used which can be purchased e.g. form the company JERINI peptide technologies (Berlin, Germany).
For the assay 50 nanoL of a 100 fold concentrated solution of the test compound in DMSO was pipetted into a black low volume 384 well microtiter plate or a black 1536 well microtiter plate (both Greiner Bio-One, Frickenhausen, Germany), 2 microL of a solution of CDK2/CycE in aqueous assay buffer [50 millimol/L Tris/HCl pH 8.0, 10 millimol/L MgCl2, 1.0 millimol/L dithiothreitol, 0.1 millimol/L sodium ortho-vanadate, 0.01% (v/v) Nonidet-P40 (Sigma)] were added and the mixture was incubated for 15 min at 22° C. to allow pre-binding of the test compounds to the enzyme before the start of the kinase reaction. Then the kinase reaction was started by the addition of 3 microL of a solution of adenosine-tri-phosphate (ATP, 3.33 millimol/L=> final conc. in the 5 microL assay volume is 2 millimol/L) and substrate (1.25 micromol/L=> final conc. in the 5 microL assay volume is 0.75 micromol/L) in assay buffer and the resulting mixture was incubated for a reaction time of 25 min at 22° C. The concentration of CDK2/CycE was adjusted depending of the activity of the enzyme lot and was chosen appropriate to have the assay in the linear range, typical concentrations were in the range of 10 ng/ml. The reaction was stopped by the addition of 3 microL of a solution of TR-FRET detection reagents (0.333 micromol/L streptavidine-XL665 [Cisbio Bioassays, Codolet, France] and 1.67 nanomol/L anti-RB(pSer807/pSer8l 1)-antibody from BD Pharmingen [#558389] and 2 nanomol/L LANCE EU-W1024 labeled anti-mouse IgG antibody [Perkin-Elmer, product no. AD0077, as an alternative a Terbium-cryptate-labeled anti-mouse IgG antibody from Cisbio Bioassays can be used]) in an aqueous EDTA-solution (167 millimol/L EDTA, 0.2% (w/v) bovine serum albumin in 100 millimol/L HEPES pH 7.5).
as §1, with “Pherastar” for “Pherastar FS”

T1 sequence (Q9NYV4 with tags, fused parts or gaps): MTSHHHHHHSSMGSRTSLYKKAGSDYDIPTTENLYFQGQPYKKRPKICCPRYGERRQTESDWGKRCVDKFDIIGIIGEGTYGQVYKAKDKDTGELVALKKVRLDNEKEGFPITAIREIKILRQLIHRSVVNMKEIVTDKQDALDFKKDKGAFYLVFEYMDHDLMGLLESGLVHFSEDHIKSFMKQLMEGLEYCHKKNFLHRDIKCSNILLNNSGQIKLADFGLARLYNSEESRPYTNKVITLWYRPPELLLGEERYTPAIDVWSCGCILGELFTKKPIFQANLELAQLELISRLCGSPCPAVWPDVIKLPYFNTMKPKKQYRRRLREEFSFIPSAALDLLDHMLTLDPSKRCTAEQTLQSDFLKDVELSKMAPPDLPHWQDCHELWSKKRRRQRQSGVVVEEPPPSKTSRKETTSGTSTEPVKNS
T1 sequence (O75909 with tags, fused parts or gaps partner limits assumed): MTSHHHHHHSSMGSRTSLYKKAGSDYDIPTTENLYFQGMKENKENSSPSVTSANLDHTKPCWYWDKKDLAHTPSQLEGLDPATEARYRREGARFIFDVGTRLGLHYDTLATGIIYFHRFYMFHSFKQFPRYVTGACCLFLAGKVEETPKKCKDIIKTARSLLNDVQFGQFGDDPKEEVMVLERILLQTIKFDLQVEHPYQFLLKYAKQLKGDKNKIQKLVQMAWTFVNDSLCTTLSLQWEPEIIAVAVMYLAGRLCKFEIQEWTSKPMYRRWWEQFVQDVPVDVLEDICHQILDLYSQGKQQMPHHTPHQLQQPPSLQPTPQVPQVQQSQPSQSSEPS

Regarding `CN(CC(C)(C)O)c1nc(NCc2nc3ccccc3[nH]2)c2ncc(C(F)(F)F)n2n1` [Example 30, 1-[{4-[(1H-benzimidazol-2-ylmethyl)amino]-7-(trifluoromethyl)imidazo[2,1-f][1,2,4]triazin-2-yl}(methyl)amino]-2-methylpropan-2-ol], the IC50 worked out at 0.163 µM at CDK12/CycK and 4.78 µM on CDK2/CycE.
